Key:
[1] = system: replication fork rate in A3 cells; experiment: DNA fibre assay; assay type: cell-based, human; conditions: 10 μM, 48 and 72 h
Method: A3 Cells were exposed to either 0.1% DMSO or 10 μM TH5487 for the indicated times, pulse-labeled with 25 μM 5-chloro-2′-deoxyuridine (CldU) for 30 min, washed with medium and pulse-labeled with 250 μM 5-iodo-2′-deoxyuridine (IdU) for 30 min. Alternatively, control or OGG1 shRNA expression was induced with 1 μg/ml doxycyline for 48 h or 96 h before pulse labelling. CldU was detected by incubating acid-treated fiber spreads in Ibidi μ-Slide VI 0.4 (Ibidi, 80606) with rat anti-BrdU monoclonal antibody (AbD Serotec; cat# MCA2060), whereas IdU was detected using mouse anti-BrdU monoclonal antibody (BD Biosciences; cat# 347580) for 1 h at 37°C. […] The lengths of red (AF 555) or green (AF 488) labeled patches were measured using the ImageJ software (National Institutes of Health; http://rsbweb.nih.gov/ij/) and arbitrary length values were converted into micrometers.
Figure 5. […] A3 cells were treated with 20 mM KBrO3 for 1 h or with 10 μM TH5487 for the indicated times, and the amount of genomic 8-oxodG was quantified with LC-MS/MS. […] A3 cells were treated with 10 μM TH5487 for 72 h and strand-breaks and OGG1 substrate lesions were analyzed with the OGG1-modified Comet assay. […] Cells were treated as in B, and the tail moment of the cells were analyzed using blinded automatic analysis (n = 200 per condition from two independent experiments). […] At least 300 forks were scored per condition. […]

A3 OGG1-shRNA cells = experiment: Off-target evaluation in OGG1 knockdown A3 cells; assay type: cell-based, human
Method: Figure 4. Anticancer properties overlap between OGG1 loss and OGG1 inhibitors. (A) Viability of T-cell acute […] leukemia cell lines treated for 5 days with the indicated doses TH5487. Data are average ±SD of independent experiments (A3, n = 5; Jurkat, n = 3; MOLT-4, n = 4; CCRF-CEM, n = 3). (B) Relative cell numbers and (C) viability (%) for A3 cells treated for 5 days with 10 μM TH5487. Data are average ±SD of six replicates from three independent experiments. (D) Induction of apoptosis in A3 cells treated for 72 h TH5487 and stained for Annexin V. Data are average ±SD of three independent experiments. (E) A3 cells transfected with shRNA targeting OGG1 were treated with doxycycline for 6 days and stained for Annexin V. Data are average ±SD of two independent experiments. (F) Scheme for recovery experiment in which A3 OGG1-shRNA cells or A3 cells were silenced or inhibited for 6 days with doxycycline (200 nM) or TH5487 (10 μM). […] Statistical significance was determined using unpaired, two-sided t-tests (*P < 0.05, **P < 0.01, ***P < 0.001, ****P < 0.0001, ns, non-significant). […]
Statistical significance was determined using unpaired, two -sided T-tests (ns, non-significant, *, P<0.05, **, P<0.01, ***, P<0.001 and ****, P<0.0001) . […] D. Comparative bar graph with quantification from two independent Western blots. […]

## O=C(Nc1ccc(I)cc1)N1CCC(n2c(=O)[nH]c3c(Br)cccc32)CC1 [TH5487]
[1]
  Replication fork rate: marked reduction
A3 OGG1-shRNA cells; A3 sh2, 6 days
  Additional toxic effect in combination with doxycycline: additional toxic effect
A3 OGG1-shRNA cells; doxycycline 5 days, then additional 48 h with 10 μM
  Additional toxic effect in OGG1 knockdown cells: no significant additional toxic effect

Reference: PMC7708037, “Targeting OGG1 arrests cancer cell proliferation by inducing replication stress” (Nucleic Acids Research, 2020)
